Laboratory results published in patent US20080075688A1, “Use of non-digestible polymeric foams to sequester ingested materials thereby inhibiting their absorption by the body” (The Procter & Gamble Company, priority 2003, published 2008).

What was measured:
rats [1] = test: Fat excretion in rats on a high-fat diet (30% of calories as corn oil) for 9 days with XENICAL, Example 4; assay type: in vivo, rat; settings: 400 ppm XENICAL without or with 0.5% HIPE foam in diet
Method: (§1) Three groups of rats were matched by weight and receive a high-fat diet (30% of calories as corn oil) for 9 days. One of the groups also received 400 ppm XENICAL® as part of the diet. The third group received both 400 ppm XENICAL® and 0.5% ground particulate HIPE foam from Example 1, Sample 1 as part of the diet. Total diet intake was measured throughout the study, and fecal output was measured in tail cups fitted to the animals during the last two days of the study. The pooled two-day collection of feces from each animal was analyzed for fat content according to AOAC method 954.04, published by AOAC International, Gaithersburg, Md.

rats [2] = test: Observer rating of oil on the fur of rats, Example 4; assay type: in vivo, rat
Method: as §1, with “Md. On days 5 and 7 of the study, the appearance of each animal was judged by two observers unaware of the dietary treatment of the animals. These observers assigned numerical values that increased with the amount of oil seen on the fur. A value of 1 was used to describe animals with no oil apparent on their fur. A value of 5 was used to describe animals with more than 90% of their fur coated with oil. Values of 2, 3, or 4, as appropriate, were assigned to animals with intermediate amounts of oil on the fur.” for “Md.”

Question: Which results are given for CCCCCCCCCCC[C@@H](C[C@@H]1OC(=O)[C@H]1CCCCCC)OC(=O)[C@H](CC(C)C)NC=O [XENICAL ®, tetrahydrolipstatin]?
Answer: Fat excretion versus the control group (rats [1]): significantly more fat than the control group; Mean Total 48 hour Lipid Excretion (rats [1]; corn oil diet 9 days, feces of last two days, control 0.16): 2.6 g; Excreted Fat (as % Ingested Fat) (rats [1]; corn oil diet 9 days, feces of last two days, control 3.9): 59.1 % Ingested Fat; Oil on fur rating compared with the other groups (rats [2]; 400 ppm XENICAL only versus control and XENICAL + foam): significantly different relative to the other two groups; Average Rating (oil on fur) (rats [2]; days 5 and 7, two blinded observers, scale 1 (no oil apparent on fur) to 5 (more than 90% of fur coated), control 1.03): 4.41
